Where “and” joins values, the source holds several entries; their conditions need not be identical. Equal values may be shown once.
How the values were obtained:
Test in all cases: normalised viability (% of control), CellTiter-Blue; higher = more viable cells (about 100 = DMSO control)
Details in all cases: incubation time: 72 h
SK-BR-3 = system: SK-BR-3
Outline: (§1)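 After 72 h on compound-loaded 384-well plates, breast cancer cell lines received 2.5 µl CellTiter-Blue reagent for 2 h at 37 °C. Fluorescence at 560/590 nm was scaled per plate so that vehicle was 100 and a positive kill control was 0. The value stands for normalised viability at a single listed concentration of the series.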

CAL-148 = system: CAL-148
Outline: as §1

CAL-120 [1] = system: CAL-120
Outline: as §1

MFM-223 [2] = system: MFM-223
Outline: as §1

Hs578T [3] = system: Hs578T
Outline: as §1

HCC1599 = system: HCC1599
Outline: as §1

HCC1937 [4] = system: HCC1937
Outline: as §1

DU-4475 [5] = system: DU-4475
Outline: as §1

CAL-51 = system: CAL-51
Outline: as §1

MDA-MB-468 [6] = system: MDA-MB-468
Outline: as §1

MDA-MB-436 [7] = system: MDA-MB-436
Outline: as §1

BT-474 [8] = system: BT-474
Outline: as §1

MDA-MB-231 = system: MDA-MB-231
Outline: as §1

BT-549 = system: BT-549
Outline: as §1

HCC1143 = system: HCC1143
Outline: as §1

CAL-85-1 [9] = system: CAL-85-1
Outline: as §1

HDQ-P1 = system: HDQ-P1
Outline: as §1

MDA-MB-453 = system: MDA-MB-453
Outline: as §1

CAL-120 [10] = system: CAL-120; remark: listed apart in the source
Outline: as §1

MFM-223 [11] = system: MFM-223; remark: listed apart in the source
Outline: as §1

Hs578T [12] = system: Hs578T; remark: listed apart in the source
Outline: as §1

HCC1937 [13] = system: HCC1937; remark: listed apart in the source
Outline: as §1

DU-4475 [14] = system: DU-4475; remark: listed apart in the source
Outline: as §1

MDA-MB-468 [15] = system: MDA-MB-468; remark: listed apart in the source
Outline: as §1

MDA-MB-436 [16] = system: MDA-MB-436; remark: listed apart in the source
Outline: as §1

BT-474 [17] = system: BT-474; remark: listed apart in the source
Outline: as §1

CAL-85-1 [18] = system: CAL-85-1; remark: listed apart in the source
Outline: as §1

CC[C@@]1(O)C(=O)OCc2c1cc1n(c2=O)Cc2cc3c(CN(C)C)c(O)ccc3nc2-1 [Topotecan]
Details | normalised viability [%]
BT-474 [8], 1 nM | 127
BT-474 [8], 100 nM | 112
BT-474 [8], 1000 nM | 77.9
BT-474 [17], 10 nM | 121
BT-549, 1 nM | 85.9
BT-549, 100 nM | 75.3
BT-549, 1000 nM | 62.9
CAL-51, 0.3 nM | 99
CAL-51, 3 nM | 96.5
CAL-51, 10 nM | 96.8
CAL-85-1 [9], 0.3 nM | 93.2
CAL-85-1 [9], 3 nM | 85.2
CAL-85-1 [9], 10 nM | 96.9
CAL-85-1 [18], 1 nM | 91.2
CAL-120 [1], 1 nM | 86.2
CAL-120 [1], 100 nM | 54.8
CAL-120 [1], 1000 nM | 32.1
CAL-120 [10], 10 nM | 76.4
CAL-148, 0.3 nM | 84.5
CAL-148, 3 nM | 111
CAL-148, 10 nM | 96.5
DU-4475 [5], 0.3 nM | 88.4
DU-4475 [5], 3 nM | 88.4
DU-4475 [5], 10 nM | 78.5
DU-4475 [14], 1 nM | 92.6
HCC1143, 1 nM | 79.9
HCC1143, 100 nM | 79.1
HCC1143, 1000 nM | 41.9
HCC1599, 1 nM | 91.5
HCC1599, 100 nM | 82.3
HCC1599, 1000 nM | 64
HCC1937 [4], 1 nM | 96.9
HCC1937 [4], 100 nM | 40.6
HCC1937 [4], 1000 nM | 26.2
HCC1937 [13], 10 nM | 81.3
HDQ-P1, 0.3 nM | 112
HDQ-P1, 3 nM | 105
HDQ-P1, 10 nM | 105
Hs578T [3], 1 nM | 132
Hs578T [3], 100 nM | 102
Hs578T [3], 1000 nM | 69.4
Hs578T [12], 10 nM | 101
MDA-MB-231, 1 nM | 97
MDA-MB-231, 100 nM | 80.5
MDA-MB-231, 1000 nM | 59.8
MDA-MB-436 [7], 1 nM | 110
MDA-MB-436 [7], 100 nM | 75.5
MDA-MB-436 [7], 1000 nM | 44.6
MDA-MB-436 [16], 10 nM | 107
MDA-MB-453, 0.3 nM | 103
MDA-MB-453, 3 nM | 107
MDA-MB-453, 10 nM | 102
MDA-MB-468 [6], 1 nM | 108
MDA-MB-468 [6], 100 nM | 45.6
MDA-MB-468 [6], 1000 nM | 12.8
MDA-MB-468 [15], 10 nM | 93
MFM-223 [2], 1 nM | 105
MFM-223 [2], 100 nM | 88.2
MFM-223 [2], 1000 nM | 53.5
MFM-223 [11], 10 nM | 92.1
SK-BR-3, 1 nM | 105
SK-BR-3, 100 nM | 48.7
SK-BR-3, 1000 nM | 24.8

Nc1cccc2c1CN(C1CCC(=O)NC1=O)C2=O (stereo unspecified) [Lenalidomide]
Details | normalised viability
BT-474 [8], 10 nM | 104% and 109%
BT-474 [8], 1000 nM | 117% and 107%
BT-474 [8], 10000 nM | 117% and 104%
BT-474 [17], 100 nM | 115% and 94.3%
BT-549, 10 nM | 94.5% and 88.9%
BT-549, 1000 nM | 94.5% and 95.7%
BT-549, 10000 nM | 89.3% and 101%
CAL-51, 3 nM | 106% and 108%
CAL-51, 30 nM | 99.4% and 99.6%
CAL-51, 100 nM | 99.9% and 97.6%
CAL-85-1 [9], 3 nM | 82.3% and 93%
CAL-85-1 [9], 30 nM | 76.5% and 84.1%
CAL-85-1 [9], 100 nM | 86% and 96.7%
CAL-85-1 [18], 10 nM | 88.2% and 90.5%
CAL-120 [1], 10 nM | 76% and 81.3%
CAL-120 [1], 1000 nM | 80.2% and 81.1%
CAL-120 [1], 10000 nM | 84.4% and 80.2%
CAL-120 [10], 100 nM | 71.4% and 84.9%
CAL-148, 3 nM | 78.6% and 91.8%
CAL-148, 30 nM | 86% and 94.3%
CAL-148, 100 nM | 86.9% and 89.8%
DU-4475 [5], 3 nM | 92.4% and 107%
DU-4475 [5], 30 nM | 89.8% and 80.5%
DU-4475 [5], 100 nM | 94.3% and 93.8%
DU-4475 [14], 10 nM | 103% and 112%
HCC1143, 10 nM | 76.4% and 66.6%
HCC1143, 1000 nM | 89.1% and 70%
HCC1143, 10000 nM | 72% and 72.4%
HCC1599, 10 nM | 82.8% and 82.1%
HCC1599, 1000 nM | 91.9% and 86.6%
HCC1599, 10000 nM | 113% and 103%
HCC1937 [4], 10 nM | 92.3% and 85.5%
HCC1937 [4], 1000 nM | 86.2% and 84.6%
HCC1937 [4], 10000 nM | 78.2% and 87.7%
HCC1937 [13], 100 nM | 92.2% and 102%
HDQ-P1, 3 nM | 95.7% and 91.8%
HDQ-P1, 30 nM | 106% and 83.8%
HDQ-P1, 100 nM | 92.3% and 86.8%
Hs578T [3], 10 nM | 107% and 99.5%
Hs578T [3], 1000 nM | 111% and 97.7%
Hs578T [3], 10000 nM | 100% and 95.5%
Hs578T [12], 100 nM | 85.7% and 86.3%
MDA-MB-231, 10 nM | 89% and 86.3%
MDA-MB-231, 1000 nM | 79.1% and 103%
MDA-MB-231, 10000 nM | 92.3% and 103%
MDA-MB-436 [7], 10 nM | 98.1% and 99.7%
MDA-MB-436 [7], 1000 nM | 85% and 101%
MDA-MB-436 [7], 10000 nM | 107% and 112%
MDA-MB-436 [16], 100 nM | 80% and 93.4%
MDA-MB-453, 3 nM | 107% and 106%
MDA-MB-453, 30 nM | 89.3% and 94.9%
MDA-MB-453, 100 nM | 96.6% and 103%
MDA-MB-468 [6], 10 nM | 103% and 111%
MDA-MB-468 [6], 1000 nM | 105% and 99.7%
MDA-MB-468 [6], 10000 nM | 93.5% and 106%
MDA-MB-468 [15], 100 nM | 100% and 94.2%
MFM-223 [2], 10 nM | 87.7% and 85.8%
MFM-223 [2], 1000 nM | 90.2% and 96.7%
MFM-223 [2], 10000 nM | 100% and 104%
MFM-223 [11], 100 nM | 91.3% and 90.2%
SK-BR-3, 10 nM | 104% and 93.7%
SK-BR-3, 1000 nM | 94.7% and 95.1%
SK-BR-3, 10000 nM | 86.8% and 101%
